SMILES | melting point [°C]
CC(=O)Nc1nc2c(NC(=O)c3cc4ccc(C(F)(F)F)cc4s3)cccc2s1 | 285.4 to 285.9
CC(=O)Nc1nc2c(NC(=O)c3ccc4cc(Br)ccc4c3)cccc2s1 [Example 4, 6-Bromo-naphthalene-2-carboxylic acid (2-acetylamino-benzothiazol-4-yl)-amide] | 241.6
O=C(Nc1ccc2c(c1)OCCO2)c1cc2ncc(C(F)(F)F)cc2s1 [Example 12, 6-Trifluoromethyl-thieno[3,2-b]pyridine-2-carboxylic acid (2,3-dihydro-benzo[1,4]dioxin-6-yl)-amide] | 247
O=C(Nc1ccc2c(c1)OCCO2)c1cnc2cc(C(F)(F)F)ccc2c1Cl [Example 13, 4-Chloro-7-trifluoromethyl-quinoline-3-carboxylic acid (2,3-dihydro-benzo[1,4]dioxin-6-yl)-amide] | 296

Other lines, results leading:

melting point [°C] | SMILES
134 | CC(C)(C)c1ccc2c(c1)CN[C@H](C(=O)Nc1ccc3c(c1)OCCO3)C2.Cl
154 to 157 | CC(C)(C)c1ccc2cc(C(=O)Nc3ccc4c(c3)OCCO4)ncc2c1 [Example 11, 7-tert-Butyl-isoquinoline-3-carboxylic acid (2,3-dihydro-benzo[1,4]dioxin-6-yl)-amide]
222.7 | O=C(Nc1ccc2c(c1)OCCO2)c1ccc2cc(Br)ccc2c1 [Example 14, 6-Bromo-naphthalene-2-carboxylic acid (2,3-dihydro-benzo[1,4]dioxin-6-yl)-amide]

Reference: patent US7553848B2, “Vanilloid receptor ligands and their use in treatments” (Amgen Inc., priority 2004, dated 2009)
